{
  "source": "patent US10377734B2",
  "about": "“Resist composition, method for forming resist pattern, polyphenol derivative for use in the composition” (Mitsubishi Gas Chemical Company, Inc., priority 2013, dated 2019)",
  "test": "Solubility test of compound in safe solvent",
  "assay_type": "physicochemical",
  "details": "23° C., ultrasonic wave 30 minutes, visual evaluation; for Solubility test of compound in safe solvent CHN: CHN (cyclohexanone); for Solubility test of compound in safe solvent PGME: PGME (propylene glycol monomethyl ether)",
  "experimental": "(1) Solubility Test of Compound in Safe Solvent\nThe solubility of the compound in CHN, PGME and PGMEA was evaluated according to the following standard using the dissolution amount in each solvent. The dissolution amount was determined by precisely weighing the compound in a test tube at 23° C.; adding the target solvent to the compound so that a predetermined concentration of the liquid to be obtained was set; applying a ultrasonic wave to the liquid in an ultrasonic washing machine for 30 minutes; and visually evaluating the state of the resulting liquid.\nA: 5.0% by mass Dissolution amount\nB: 3.0% by mass Dissolution amount <5.0% by mass\nC: Dissolution amount <3.0% by mass",
  "data": [
    {"smiles": "CC(C)(C)OC(=O)Oc1ccc2c3c(ccc2c1)Oc1ccc2cc(OC(=O)OC(C)(C)C)ccc2c1C3c1ccc(-c2ccccc2)cc1", "note": "[XBisN-1-BOC]", "values": [
      {"measurement": "Solubility test of compound in safe solvent CHN", "value": "A (5.0% by mass Dissolution amount)"},
      {"measurement": "Solubility test of compound in safe solvent PGME", "value": "B (3.0% by mass Dissolution amount <5.0% by mass)"},
      {"measurement": "Solubility test of compound in safe solvent PGMEA", "value": "A (5.0% by mass Dissolution amount)"}
    ]},
    {"smiles": "CC(C)(C)OC(=O)Oc1ccc2c(C(c3ccc(-c4ccccc4)cc3)c3c(OC(=O)OC(C)(C)C)ccc4cc(OC(=O)OC(C)(C)C)ccc34)c(OC(=O)OC(C)(C)C)ccc2c1", "note": "[BisN-1-BOC]", "values": [
      {"measurement": "Solubility test of compound in safe solvent CHN", "value": "A (5.0% by mass Dissolution amount)"},
      {"measurement": "Solubility test of compound in safe solvent PGME", "value": "B (3.0% by mass Dissolution amount <5.0% by mass)"},
      {"measurement": "Solubility test of compound in safe solvent PGMEA", "value": "A (5.0% by mass Dissolution amount)"}
    ]},
    {"smiles": "CC(C)(C)OC(=O)COc1ccc2c3c(ccc2c1)Oc1ccc2cc(OCC(=O)OC(C)(C)C)ccc2c1C3c1ccc(-c2ccccc2)cc1", "note": "[XBisN-1-MeBOC]", "values": [
      {"measurement": "Solubility test of compound in safe solvent CHN", "value": "A (5.0% by mass Dissolution amount)"},
      {"measurement": "Solubility test of compound in safe solvent PGME", "value": "A (5.0% by mass Dissolution amount)"},
      {"measurement": "Solubility test of compound in safe solvent PGMEA", "value": "B (3.0% by mass Dissolution amount <5.0% by mass)"}
    ]},
    {"smiles": "CC(C)(C)OC(=O)COc1ccc2c(C(c3ccc(-c4ccccc4)cc3)c3c(OCC(=O)OC(C)(C)C)ccc4cc(OCC(=O)OC(C)(C)C)ccc34)c(OCC(=O)OC(C)(C)C)ccc2c1", "note": "[BisN-1-MeBOC]", "values": [
      {"measurement": "Solubility test of compound in safe solvent CHN", "value": "A (5.0% by mass Dissolution amount)"},
      {"measurement": "Solubility test of compound in safe solvent PGME", "value": "A (5.0% by mass Dissolution amount)"},
      {"measurement": "Solubility test of compound in safe solvent PGMEA", "value": "B (3.0% by mass Dissolution amount <5.0% by mass)"}
    ]},
    {"smiles": "CC(C)(C)OC(=O)Oc1ccc(C(c2ccc(OC(=O)OC(C)(C)C)cc2)c2ccc3ccc(C(c4ccc(OC(=O)OC(C)(C)C)cc4)c4ccc(OC(=O)OC(C)(C)C)cc4)cc3c2)cc1", "note": "[TetP-1-BOC, reference compound]", "values": [
      {"measurement": "Solubility test of compound in safe solvent CHN", "value": "A (5.0% by mass Dissolution amount)"},
      {"measurement": "Solubility test of compound in safe solvent PGME", "value": "A (5.0% by mass Dissolution amount)"},
      {"measurement": "Solubility test of compound in safe solvent PGMEA", "value": "A (5.0% by mass Dissolution amount)"}
    ]}
  ]
}
